Where two headings read alike, the source gives them in different places.
Experiments:
Cav p 1.0201 = Cav p 1.0201 (Cavia porcellus, UniProt A0A484HRI4); assay: Competitive fluorescence-quenching assay, Cav p 1.0201; assay type: binding, guinea pig; conditions: for Mean fluorescence inhibition / inhibition at 50 µM: 5 μM Cav p 1.0201-1-AMA complex, 50 μM ligand, n = 2
Description: (§1) Fluorescence quenching assays were performed as previously described ([45]), with modifications. Fluorochromes and ligands were purchased from Sigma Aldrich (Steinheim, Germany), Carl Roth (Karlsruhe, Germany) and TCI Europe N.V. (Zwijndrecht, Belgium).
(§2) Stock solutions were prepared at a concentration of 10 mM in 100% ethanol for the fluorochromes 1-aminoanthracene (1-AMA), 8-anilino-1-naphthalensulfonic acid (1,8-ANS) and for all ligands, and in 100% methanol for n-phenyl-1-naphthylamine (1-NPN), respectively. Iron catecholate ligands (siderophores) were prepared as previously described ([46]). Fluorochrome-protein complexes were analyzed at an equimolar concentration of 5 μM in PBS with 5% ethanol in a volume of 100 μL per well in black 96-well non-binding microplates (Greiner Bio-One GmbH, Frickenhausen, Germany). Solutions containing only protein or the respective fluorescent probe in PBS with 5% ethanol served as controls. Fluorochrome-protein complexes were incubated with orbital shaking for 10 min at 500 rpm at room temperature (RT) before measurement using the fluorescence reader TECAN Infinite 200 Pro (Tecan Trading AG, Switzerland). Excitation wavelengths were fixed at 380 nm for 1-AMA and 1,8-ANS, and 337 nm for 1-NPN. Fluorescence emission spectra were recorded in 5 nm steps between 420 and 560 nm for 1-AMA and 1,8-ANS and between 380 and 500 nm for 1-NPN. The establishment of fluorescent quenching assay parameters for each allergen is explained in the results Section Fluorescence-quenching assay set up. Binding affinities were analyzed by non-linear regression in GraphPad Prism Version 9.3.1 (GraphPad Software, LLC). For the ligand competition assays, ligands were added to fluorochrome-allergen complexes with a final buffer composition of 5% ethanol in PBS in a volume of 100 μL and incubated for 30 min at 500 rpm at RT and further equilibrated for another 30 min without shaking before fluorescence measurement.
(§3) The binding affinities of non-fluorescent ligands is inferred to by their ability to compete and displace the fluorochromes bound to the allergen at a certain concentration. This leads to a measurable decrease in fluorescence intensity that will be expressed as fluorescence inhibition (Figure 6). For a given allergen, the ligand with the strongest inhibition has the highest binding affinity. […] Competitive ligand binding was analyzed by non-linear regression and inhibitory dissociation constants (Ki) were calculated.

Can f 6 = target: T1, Can f 6 (Canis lupus familiaris, UniProt H2B3G5); assay: Competitive fluorescence-quenching assay, Can f 6; assay type: binding, dog; conditions: for inhibition at 100 µM: read-out: Mean fluorescence inhibition; for Ki: 5 μM Can f 6, fluorochrome 1-NPN, to be interpreted with caution, imprecise Ki values, read-out: Ligand inhibition constant Ki
T1 construct: polyhistidine tag (C); made in house; host or cells: E. coli Rosetta-gami 2
T1 sequence (H2B3G5 16-190): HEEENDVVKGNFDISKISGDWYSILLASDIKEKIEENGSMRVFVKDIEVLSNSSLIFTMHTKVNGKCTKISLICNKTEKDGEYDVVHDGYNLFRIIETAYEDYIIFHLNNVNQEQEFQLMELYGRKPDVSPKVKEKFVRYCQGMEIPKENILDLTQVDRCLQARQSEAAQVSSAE
Description: as §1, §2, §3

Cav p 1.0101 = Cav p 1.0101 (Cavia porcellus, UniProt A0A484HM70, S19A); assay: Competitive fluorescence-quenching assay, Cav p 1.0101; assay type: binding, guinea pig; conditions: for Mean fluorescence inhibition / inhibition at 50 µM: 5 μM Cav p 1.0101-1-AMA complex, 50 μM ligand, n = 2
Description: as §1, §2, §3

Fel d 4 = target: T2, Fel d 4 (Felis catus, UniProt Q5VFH6); assay: Competitive fluorescence-quenching assay, Fel d 4; assay type: binding, cat; conditions: for inhibition at 100 µM: read-out: Mean fluorescence inhibition; for Ki: 5 μM Fel d 4, fluorochrome 1-NPN, to be interpreted with caution, imprecise Ki values, read-out: Ligand inhibition constant Ki
T2 construct: polyhistidine tag (C); made in house; host or cells: E. coli Rosetta-gami 2
T2 sequence (Q5VFH6 16-186): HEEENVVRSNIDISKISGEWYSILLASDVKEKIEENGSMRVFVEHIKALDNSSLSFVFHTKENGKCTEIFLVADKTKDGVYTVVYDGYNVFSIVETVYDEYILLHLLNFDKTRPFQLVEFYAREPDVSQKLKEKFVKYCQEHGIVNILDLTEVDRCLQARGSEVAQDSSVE
Description: as §1, §2, §3

Ory c 2 = assay: Competitive fluorescence-quenching assay, Ory c 2; assay type: binding, rabbit; conditions: for Mean fluorescence inhibition: 5 μM Ory c 2-1-AMA complex, 50 μM ligand, n = 2
Description: as §1, §2, §3

Fel d 1 = target: T3, Fel d 1 (Felis catus, UniProt P30438+P30440); assay: Competitive fluorescence-quenching assay, Fel d 1; assay type: binding, cat; conditions: for Ki: Ligand inhibition constant Ki
T3 construct: polyhistidine tag (C); made in house; host or cells: E. coli Rosetta-gami 2
T3 sequence (P30438+P30440 with tags, fused parts or gaps): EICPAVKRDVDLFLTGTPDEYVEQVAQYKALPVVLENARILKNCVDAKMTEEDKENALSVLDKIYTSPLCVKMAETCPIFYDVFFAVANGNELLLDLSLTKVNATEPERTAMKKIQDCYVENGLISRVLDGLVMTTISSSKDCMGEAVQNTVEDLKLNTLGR
Description: as §1, §2, §3

Ory c 3 = Ory c 3 (Oryctolagus cuniculus, UniProt Q9GK63+Q9GK67); assay: Competitive fluorescence-quenching assay, Ory c 3; assay type: binding, rabbit; conditions: for inhibition at 50 µM: read-out: Mean fluorescence inhibition
Description: as §1, §2, §3

[1] = 5 μM Fel d 1 + 1,8-ANS complex, 100 μM ligand, read-out: Mean fluorescence inhibition
[2] = 5 μM Fel d 1 + 1-NPN complex, 100 μM ligand, read-out: Mean fluorescence inhibition
[3] = 5 μM Ory c 3-1-AMA complex, 50 μM ligand, n = 2
[4] = 5 μM Can f 6-1-NPN complex, 100 μM ligand, high standard error
[5] = 5 μM Fel d 4-1-NPN complex, 100 μM ligand
[6] = read-out: Mean fluorescence inhibition, 5 μM Fel d 1 + 1,8-ANS complex, 100 μM ligand
[7] = read-out: Mean fluorescence inhibition, 5 μM Fel d 1 + 1-NPN complex, 100 μM ligand
[8] = 5 μM Fel d 1 + 1,8-ANS complex, 100 μM ligand

## C[C@]12CC[C@H]3[C@@H](CCC4=CC(=O)CC[C@@]43C)[C@@H]1CC[C@@H]2O [Testosterone, testosterone]
Cav p 1.0201
  Mean fluorescence inhibition: not observed
Can f 6
  inhibition at 100 µM: 43.7%
Cav p 1.0101
  Mean fluorescence inhibition: not observed
Fel d 4
  inhibition at 100 µM: 92.2%

## CCCCCCCCO [Caprylic alcohol, 1-octanol]
Cav p 1.0201
  inhibition at 50 µM: 82.1%
Ory c 2
  Mean fluorescence inhibition: 65.3%
Fel d 1; [1]
  inhibition at 100 µM: 56.5%
Fel d 1; [2]
  inhibition at 100 µM: 49.2%
Cav p 1.0101
  inhibition at 50 µM: 86.7%
Ory c 3; [3]
  inhibition at 50 µM: 68.8%

## CC(C)CCCC(C)CCO (centres unmarked) [3,7-dimethyl-1-octanol]
Cav p 1.0201
  inhibition at 50 µM: 80.3%
Ory c 2
  Mean fluorescence inhibition: 72.5%
Can f 6; [4]
  inhibition at 100 µM: 100%
Fel d 1; [1]
  inhibition at 100 µM: 58.3%
Fel d 1; [2]
  inhibition at 100 µM: 85.4%
Cav p 1.0101
  inhibition at 50 µM: 96.4%
Ory c 3; [3]
  inhibition at 50 µM: 91.1%
Fel d 4; [5]
  inhibition at 100 µM: 89.5%

## CCCCCCCCCCCCO [1-Dodecanol, 1-dodecanol]
Cav p 1.0201
  inhibition at 50 µM: 97%
Ory c 2
  Mean fluorescence inhibition: 84.6%
Fel d 1; [1]
  inhibition at 100 µM: 44.2%
Cav p 1.0101
  inhibition at 50 µM: 98.9%
Ory c 3; [3]
  inhibition at 50 µM: 95.6%

## CCCc1ccc(O)cc1 [4-Propylphenol, 4-propylphenol]
Cav p 1.0201
  inhibition at 50 µM: 57%
Ory c 2; 5 μM Ory c 2, fluorochrome 1-AMA, read-out: Ligand inhibition constant Ki
  Ki: 2.6 µM
Ory c 2
  Mean fluorescence inhibition: 93.2%
Fel d 1; [6]
  inhibition at 100 µM: 52.8%
Fel d 1; [7]
  inhibition at 100 µM: 65.3%
Cav p 1.0101
  inhibition at 50 µM: 65.7%
Ory c 3; [3]
  inhibition at 50 µM: 93.2%

## CC(C)=CCCC(C)=CC#N [Geranyl nitrile, geranyl nitrile]
Cav p 1.0201
  Mean fluorescence inhibition: 89.1%
Ory c 2
  Mean fluorescence inhibition: 91.2%
Cav p 1.0101
  Mean fluorescence inhibition: 57.4%

## CC(C)CCC[C@@H](C)[C@H]1CC[C@H]2[C@@H]3CC=C4C[C@@H](O)CC[C@]4(C)[C@H]3CC[C@]12C [cholesterol]
Cav p 1.0201
  Mean fluorescence inhibition: not observed
Cav p 1.0101
  Mean fluorescence inhibition: not observed

## CCCCCCCCN [Octanamine, octanamine]
Can f 6
  Ki: 273 µM
Can f 6; [4]
  Mean fluorescence inhibition: 148.7%
Fel d 1; [8]
  Mean fluorescence inhibition: 37.7%
Fel d 1; 5 μM Fel d 1 + 1-NPN complex, 100 μM ligand
  Mean fluorescence inhibition: 81.1%
Ory c 3; [3]
  Mean fluorescence inhibition: 54.7%
Fel d 4; [5]
  Mean fluorescence inhibition: 94.9%

## monophosphoryl lipid A [MPLA]
Cav p 1.0201
  Mean fluorescence inhibition: more than half
Cav p 1.0101
  Mean fluorescence inhibition: more than half
Ory c 3; [3]
  Mean fluorescence inhibition: more than half

## CC(C)c1ccccc1O [2-Isopropylphenol, 2-isopropylphenol]
Can f 6; [4]
  inhibition at 100 µM: 105%
Fel d 4
  Ki: 20.1 µM
Fel d 4; [5]
  inhibition at 100 µM: 99.5%

## CCCCCCCCCC(=O)O [Decanoic acid, decanoic acid]
Fel d 1; [6]
  inhibition at 100 µM: 71.2%
Fel d 1; [7]
  inhibition at 100 µM: 101%
Ory c 3; [3]
  inhibition at 50 µM: 76.1%

## CCCCCCCCCCO [1-Decanol, 1-decanol]
Cav p 1.0201
  Ki: 1.1 µM
  inhibition at 50 µM: 98.2%
Ory c 2
  Mean fluorescence inhibition: 75.1%
Fel d 1; [6]
  inhibition at 100 µM: 68.4%
Cav p 1.0101
  inhibition at 50 µM: 99%
Cav p 1.0101; Ligand inhibition constant Ki, 5 μM Cav p 1.0101, fluorochrome 1-AMA
  Ki: 0.8 µM
Ory c 3
  Ki: 0.7 µM
Ory c 3; [3]
  inhibition at 50 µM: 98%

## CC(C)c1cccc(O)c1 [3-Isopropylphenol, 3-ilsopropylphenole]
Cav p 1.0201
  inhibition at 50 µM: 75.7%
Ory c 2
  Mean fluorescence inhibition: 89.5%
Can f 6; [4]
  inhibition at 100 µM: 107%
Cav p 1.0101
  inhibition at 50 µM: 55.3%
Fel d 4; [5]
  inhibition at 100 µM: 89.5%

## CCCCCCCCCCCCCCCO [Pentadecanol, pentadecanol]
Cav p 1.0201
  Mean fluorescence inhibition: 94.5%
Ory c 2
  Mean fluorescence inhibition: 20.8%
Cav p 1.0101
  Mean fluorescence inhibition: 51.3%

## CCCCCCCCCCCCCCO [Tetradecanol, tetradecanol]
Cav p 1.0201
  Mean fluorescence inhibition: 97.9%
Ory c 2
  Mean fluorescence inhibition: 55.4%
Fel d 1; [8]
  Mean fluorescence inhibition: 0.0%
Cav p 1.0101
  Mean fluorescence inhibition: 82.4%
Ory c 3; [3]
  Mean fluorescence inhibition: 92.9%

## COc1nccnc1CC(C)C [IBMP, 2-isobutyl-3-methoxypyrazine]
Can f 6
  Ki: 49.6 µM
Can f 6; [4]
  inhibition at 100 µM: 118%
Fel d 4
  Ki: 39.2 µM
Fel d 4; [5]
  inhibition at 100 µM: 96.8%

## CCCCCCCCCCCC(=O)O [Dodecanoic acid, dodecanoic acid]
Fel d 1; 5 μM Fel d 1, fluorochrome 1,8-ANS
  Ki: 26.7 µM
Fel d 1; 5 μM Fel d 1, fluorochrome 1-NPN
  Ki: 14.4 µM
Fel d 1; [6]
  inhibition at 100 µM: 75.2%
Fel d 1; [7]
  inhibition at 100 µM: 91.7%
Ory c 3
  inhibition at 50 µM: 76.2%
